Experimental data as given in patent US12187702B2, “Sulfonamideurea compounds” (Inflazome Limited, priority 2018, dated 2025).
Where a name gives a salt, the structure may show the parent alone.

Molecular target: NLRP3 (Homo sapiens, UniProt Q96P20)
Test: THP-1 cells pyroptosis assay (LPS + nigericin, resazurin read-out)
Type: cell-based
Parameters: Seed THP-1 cells (25,000 cells/well) containing 1.0 μg/ml LPS; host or cells: THP-1 cells
Conditions: THP-1 cells, 1 μg/ml LPS, 5 μM nigericin; NLRP3 inhibitory activity; read-out: THP IC50
Protocol: THP-1 cells (ATCC #TIB-202) were grown in RPMI containing L-glutamine (Gibco #11835) supplemented with 1 mM sodium pyruvate (Sigma #S8636) and penicillin (100 units/ml)/streptomycin (0.1 mg/ml) (Sigma #P4333) in 10% Fetal Bovine Serum (FBS) (Sigma #F0804). The cells were routinely passaged and grown to confluency (˜10^6 cells/ml). On the day of the experiment, THP-1 cells were harvested and resuspended into RPMI medium (without FBS). The cells were then counted and viability (>90%) checked by Trypan blue (Sigma #T8154). Appropriate dilutions were made to give a concentration of 625,000 cells/ml. To this diluted cell solution was added LPS (Sigma #L4524) to give a 1 μg/ml Final Assay Concentration (FAC). 40 μl of the final preparation was aliquoted into each well of a 96-well plate. The plate thus prepared was used for compound screening.
The following method step-by-step assay was followed for compound screening. • 1. Seed THP-1 cells (25,000 cells/well) containing 1.0 μg/ml LPS in 40 μl of RPMI medium (without FBS) in 96-well, black walled, clear bottom cell culture plates coated with poly-D-lysine (VWR #734-0317) • 2. Add 5 μl compound (8 points half-log dilution, with 10 μM top dose) or vehicle (DMSO 0.1% FAC) to the appropriate wells • 3. Incubate for 3 hrs at 37° C., 5% CO2 • 4. Add 5 μl nigericin (Sigma #N7143) (FAC 5 μM) to all wells • 5. Incubate for 1 hr at 37° C., 5% CO2 • 6. At the end of the incubation period, spin plates at 300×g for 3 mins and remove supernatant • 7. Then add 50 μl of resazurin (Sigma #R7017) (FAC 100 μM resazurin in RPMI medium without FBS) and incubate plates for a further 1-2 hrs at 37° C. and 5% CO2 • 8. Plates were read in an Envision reader at Ex 560 nm and Em 590 nm • 9. IC50 data is fitted to a non-linear regression equation (log inhibitor vs response-variable slope 4-parameters)

Sequence of NLRP3 (Q96P20 whole entry): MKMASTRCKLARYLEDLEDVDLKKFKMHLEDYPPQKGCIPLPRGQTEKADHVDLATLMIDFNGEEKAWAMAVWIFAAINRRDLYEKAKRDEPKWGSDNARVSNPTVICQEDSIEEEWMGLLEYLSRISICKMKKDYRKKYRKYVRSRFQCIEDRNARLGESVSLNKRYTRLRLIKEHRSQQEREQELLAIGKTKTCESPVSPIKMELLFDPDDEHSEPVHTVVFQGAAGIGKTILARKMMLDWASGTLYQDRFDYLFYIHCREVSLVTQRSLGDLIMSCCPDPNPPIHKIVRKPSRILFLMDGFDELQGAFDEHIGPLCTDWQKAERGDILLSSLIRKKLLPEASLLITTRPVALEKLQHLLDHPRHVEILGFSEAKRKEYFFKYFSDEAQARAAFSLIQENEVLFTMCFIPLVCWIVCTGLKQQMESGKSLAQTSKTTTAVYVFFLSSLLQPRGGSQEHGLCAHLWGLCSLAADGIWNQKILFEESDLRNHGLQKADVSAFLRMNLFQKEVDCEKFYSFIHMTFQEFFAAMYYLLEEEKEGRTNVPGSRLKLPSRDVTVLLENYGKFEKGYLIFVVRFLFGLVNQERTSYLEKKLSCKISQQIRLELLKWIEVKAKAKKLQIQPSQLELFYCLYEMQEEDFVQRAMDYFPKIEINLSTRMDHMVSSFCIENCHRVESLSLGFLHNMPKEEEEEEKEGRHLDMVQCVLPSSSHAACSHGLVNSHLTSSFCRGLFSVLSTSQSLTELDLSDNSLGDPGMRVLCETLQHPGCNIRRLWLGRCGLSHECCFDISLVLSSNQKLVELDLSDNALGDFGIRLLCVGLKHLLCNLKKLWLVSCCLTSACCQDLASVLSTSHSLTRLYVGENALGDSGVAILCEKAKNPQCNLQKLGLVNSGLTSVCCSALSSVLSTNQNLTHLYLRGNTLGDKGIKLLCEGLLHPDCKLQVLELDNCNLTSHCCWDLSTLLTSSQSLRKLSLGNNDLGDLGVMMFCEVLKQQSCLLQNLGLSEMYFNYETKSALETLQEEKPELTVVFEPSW

IC50	Structure (SMILES)
< 1 µM	COCCN(C)S(=O)(=O)NC(=O)Nc1c2c(cc3c1CCC3)CCC2 [Example 7, 3-Methyl-((2-Methoxyethyl)sulfamoyl)-1-(1,2,3,5,6,7-hexahydro-s-indacen-4-yl)urea, potassium salt]
< 5 µM	CC(C)CN(CCN(C)C)S(=O)(=O)NC(=O)Nc1c2c(cc3c1CCC3)CCC2 [Example 12, 3-(N-(2-(Dimethylamino)ethyl)-N-isobutylsulfamoyl)-1-(1,2,3,5,6,7-hexahydro-s-indacen-4-yl)urea, potassium salt]
< 1 µM	CN(C)CCN(CCc1ccccc1)S(=O)(=O)NC(=O)Nc1c2c(cc3c1CCC3)CCC2 [Example 13, 3-(N-(2-(Dimethylamino)ethyl)-N-phenethylsulfamoyl)-1-(1,2,3,5,6,7-hexahydro-s-indacen-4-yl)urea, potassium salt]
< 5 µM	CC(CN(C)C)NS(=O)(=O)NC(=O)Nc1c2c(cc3c1CCC3)CCC2 (centres unmarked) [Example 16, 3-(N-(1-(Dimethylamino)propan-2-yl)sulfamoyl)-1-(1,2,3,5,6,7-hexahydro-s-indacen-4-yl)urea, potassium salt]
< 1 µM	CN(C)C1CN(S(=O)(=O)NC(=O)Nc2c3c(cc4c2CCC4)CCC3)C1 [Example 17, 3-(Dimethylamino)-N-((1,2,3,5,6,7-hexahydro-s-indacen-4-yl)carbamoyl)azetidine-1-sulfonamide, potassium salt]
< 5 µM	CCN(CC)CCN(CC)S(=O)(=O)NC(=O)Nc1c2c(cc3c1CCC3)CCC2 [Example 18, 3-(N-(2-(Diethylamino)ethyl)-N-ethylsulfamoyl)-1-(1,2,3,5,6,7-hexahydro-s-indacen-4-yl)urea, potassium salt]
< 1 µM	CCN1CCCC(NS(=O)(=O)NC(=O)Nc2c3c(cc4c2CCC4)CCC3)C1 (centres unmarked) [Example 19, 3-(N-(1-Ethylpiperidin-3-yl)sulfamoyl)-1-(1,2,3,5,6,7-hexahydro-s-indacen-4-yl)urea, potassium salt]
< 5 µM	CCN1CCN(S(=O)(=O)NC(=O)Nc2c3c(cc4c2CCC4)CCC3)CC1 [Example 21, 4-Ethyl-N-((1,2,3,5,6,7-hexahydro-s-indacen-4-yl)carbamoyl) piperazine-1-sulfonamide]
< 0.5 µM	CN1CCCCC1CN(C)S(=O)(=O)NC(=O)Nc1c2c(cc3c1CCC3)CCC2 (centres unmarked) [Example 22, 3-(N-methyl-N-((1-methylpiperidin-2-yl)methyl)sulfamoyl)-1-(1,2,3,5,6,7-hexahydro-s-indacen-4-yl)urea, potassium salt]
< 5 µM	O=C(Nc1c2c(cc3c1CCC3)CCC2)NS(=O)(=O)N1CC(N2CCCC2)C1 [Example 23, potassium salt]
< 10 µM	O=C1Cc2cc(NS(=O)(=O)NC(=O)Nc3c4c(cc5c3CCC5)CCC4)ccc2N1 [Example 24, 3-(N-(2-Oxoindolin-5-yl)sulfamoyl)-1-(1,2,3,5,6,7-hexahydro-s-indacen-4-yl)urea, potassium salt]
< 1 µM	CC(CN(C)C)N(C)S(=O)(=O)NC(=O)Nc1c2c(cc3c1CCC3)CCC2 (centres unmarked) [Example 27, 3-(N-(1-(dimethylamino)propan-2-yl)-N-methyl)sulfamoyl)-1-(1,2,3,5,6,7-hexahydro-s-indacen-4-yl)urea, potassium salt]
< 5 µM	CNCCN(C)S(=O)(=O)NC(=O)Nc1c2c(cc3c1CCC3)CCC2 [Example 32, 3-(N-Methyl-N-(2-(methylamino)ethyl))sulfamoyl)-1-(1,2,3,5,6,7-hexahydro-s-indacen-4-yl)urea, potassium salt]
< 5 µM	CC(=O)N(C)CCN(C)S(=O)(=O)NC(=O)Nc1c2c(cc3c1CCC3)CCC2 [Example 41, N-(2-((N-((1,2,3,5,6,7-Hexahydro-s-indacen-4-yl)carbamoyl)sulfamoyl)(methyl)amino)ethyl)-N-methylacetamide, potassium salt]
< 1 µM	CN(C)CCCCNS(=O)(=O)NC(=O)Nc1c2c(cc3c1CCC3)CCC2 [Example 48, 3-(N-(4-(Dimethylamino)butyl)sulfamoyl)-1-(1,2,3,5,6,7-hexahydro-s-indacen-4-yl)urea, potassium salt]
< 10 µM	CN(C)CCN(CCN(C)C)S(=O)(=O)NC(=O)Nc1c2c(cc3c1CCC3)CCC2 [Example 51, 3-(N,N-Bis(2-(dimethylamino)ethyl)sulfamoyl)-1-(1,2,3,5,6,7-hexahydro-s-indacen-4-yl)urea, potassium salt]
< 5 µM	CCN(CC)CCN(C)S(=O)(=O)NC(=O)Nc1c2c(cc3c1CCC3)CCC2 [Example 53, 3-(N-(2-(Diethylamino)ethyl)-N-methyl)sulfamoyl)-1-(1,2,3,5,6,7-hexahydro-s-indacen-4-yl)urea, potassium salt]
< 5 µM	O=C(Nc1c2c(cc3c1CCC3)CCC2)NS(=O)(=O)NCCCCO [Example 54, 3-((N-(4-Hydroxybutyl))sulfamoyl)-1-(1,2,3,5,6,7-hexahydro-s-indacen-4-yl)urea, potassium salt]
< 1 µM	Cn1ccc(NS(=O)(=O)NC(=O)Nc2c3c(cc4c2CCC4)CCC3)n1 [Example 55, 3-((N-(1-Methyl-1H-pyrazol-3-yl))sulfamoyl)-1-(1,2,3,5,6,7-hexahydro-s-indacen-4-yl)urea, potassium salt]
< 5 µM	CN(C)C(C)(C)CNS(=O)(=O)NC(=O)Nc1c2c(cc3c1CCC3)CCC2 [Example 57, 3-(N-(2-(Dimethylamino)-2-methylpropyl)sulfamoyl)-1-(1,2,3,5,6,7-hexahydro-s-indacen-4-yl)urea, potassium salt]
< 5 µM	CN(C)CC(C)(C)NS(=O)(=O)NC(=O)Nc1c2c(cc3c1CCC3)CCC2 [Example 59, 3-(N-(1-(Dimethylamino)-2-methylpropan-2-yl)sulfamoyl)-1-(1,2,3,5,6,7-hexahydro-s-indacen-4-yl)urea, potassium salt]
< 1 µM	O=C(Nc1c2c(cc3c1CCC3)CCC2)NS(=O)(=O)N1CCN2CCC1C2 (centres unmarked) [Example 60, potassium salt]
< 1 µM	CN1C[C@@H]2C[C@H]1CN2S(=O)(=O)NC(=O)Nc1c2c(cc3c1CCC3)CCC2 [Example 67, (1S,4S)—N-((1,2,3,5,6,7-Hexahydro-s-indacen-4-yl)carbamoyl)-5-methyl-2,5-diazabicyclo[2.2.1]heptane-2-sulfonamide, potassium salt]

Structure (SMILES)	IC50
CC(C)N1[C@@H]2CC[C@H]1C[C@@H](NS(=O)(=O)NC(=O)Nc1c3c(cc4c1CCC4)CCC3)C2 [Example 33, (1R,3r,5S)-8-Isopropyl-8-azabicyclo[3.2.1]octan-3-(N-((1,2,3,5,6,7-hexahydro-s-indacen-4-yl)carbamoyl)-sulfonamide)]	< 5 µM
CC(C)N1[C@@H]2CC[C@H]1C[C@H](NS(=O)(=O)NC(=O)Nc1c3c(cc4c1CCC4)CCC3)C2 [Example 63, (1R,3s,5S)-8-isopropyl-8-azabicyclo[3.2.1]octan-3-(N-((1,2,3,5,6,7-hexahydro-s-indacen-4-yl)carbamoyl)-sulfonamide)]	< 1 µM
CCN(CC)[C@H]1C[C@H]2CC[C@@H](C1)N2S(=O)(=O)NC(=O)Nc1c2c(cc3c1CCC3)CCC2 [Example 64, (1R,3r,5S)-3-(Diethylamino)-N-((1,2,3,5,6,7-hexahydro-s-indacen-4-yl)carbamoyl)-8-azabicyclo[3.2.1]octane-8-sulfonamide]	< 0.5 µM
